In patent US8569305B2, “Treatment of tuberous sclerosis associated neoplasms” (Emory University, priority 2002, dated 2013):
Entries after “also recorded” stand apart in the source; their conditions may differ.

Key:
[1] = test system: Human SV7tert angiomyolipoma cells; experiment: Inhibition of proliferation of SV7tert cells by tyrosine kinase inhibitors (cell count); assay type: cell-based; conditions: for sensitivity / growth inhibition of SV7tert cells (in words): Human SV7tert cells in vitro; for N number of living cells after 72 h treatment: Human SV7tert cells; for No. of Cells after 72 hours: SV7tert cells
Excerpt: (§1) SV7tert (ATCC CRL 2461) is a cell line derived from a human angiomyolipoma through the sequential introduction of SV40 large T antigen and telomerase into primary human angiomyolipoma cells (Arbiser, J. L. et al. The generation and characterization of a cell line derived from a sporadic renal angiomyolipoma: use of telomerase to obtain stable populations of cells from benign neoplasms. Am.J.Pathol. 159, 483-491 (2001)). Angiomyolipomas are benign tumors of the kidney derived from putative perivascular epithelioid cells, that may undergo differentiation into cells with features of melanocytes, smooth muscle, and fat. Tsc2ang1 (ATCC CRL 2620) is a murine cell line derived from a cutaneous sarcoma arising in the extremity of a mouse heterozygous for tsc2. The sarcoma tissue was digested with collagenase and processed as described for SV7tert cells (Arbiser, J. L. et al.). Mice heterozygous for tsc2 develop cutaneous sarcomas at a frequency of approximately 10-15% (Onda, H., Lueck, A., Marks, P. W., Warren, H. B., & Kwiatkowski, D. J. Tsc2(+/−) mice develop tumors in multiple sites that express gelsolin and are influenced by genetic background. J.Clin Invest 104, 687-695 (1999)).
(§2) The following tyrosine kinase inhibitors were reconstituted as stock solutions in dimethyl sulfoxide (DMSO) immediately prior to use; AG9, AG17, AG18, AG30, AG82, AG99, AG112, AG370, AG490, AG879, AG957, AG1295, AG1296, AG1433, 2′thioadenosine, ST638, COMPOUND I, lavendustin C, oxindole 1, JAK3 inhibitors 1,2, and 3, as well as JAK3 inhibitor negative control. They can be obtained from Calbiochem (San Diego, Calif.). 10,000 cells per well in a 24 well dish were plated on day 1, and were treated with inhibitors in doses ranging from […] (LaMontagne Jr K. R. Jr et al. Inhibition of MAP kinase kinase causes morphological reversion and dissociation between soft agar growth and in vivo tumorigenesis in angiosarcoma cells; Am.J.Pathol. 157,1937-1945 (2000)). Cells were counted 72 hours after treatment with inhibitors using a Coulter Counter (Coulter, Hialeah,Fla.).

Murine tsc2ang1 cells = experiment: Inhibition of proliferation of tsc2ang1 cells by tyrosine kinase inhibitors (cell count); assay type: cell-based; conditions: for N number of living cells after 72 h treatment: Murine tsc2ang1 cells
Excerpt: as §1, §2

[2] = test system: Akt phosphorylation in SV7tert cells; experiment: Akt phosphorylation in SV7tert cells after treatment; assay type: cell-based, human; conditions: after 24 hours of treatment

Row | SMILES | sensitivity / growth inhibition of SV7tert cells (in words) [1] | N number of living cells after 72 h treatment ([1]; concentration 10 μg/ml) | N number of living cells after 72 h treatment ([1]; concentration 20 μg/ml) | also measured
1 | CC(C)(C)c1cc(C=C(C#N)C#N)cc(C(C)(C)C)c1O [AG17, 3,5-di-tert-butyl-4-hydroxybenzylidene-malononitrile] | highest sensitivity; also recorded: strongly inhibited | 23 ×100 | 22 ×100 | sensitivity / growth inhibition of tsc2ang1 cells (in words) (Murine tsc2ang1 cells; Murine tsc2ang1 cells in vitro): hypersensitivity; also recorded: strongly inhibited; N number of living cells after 72 h treatment (Murine tsc2ang1 cells; concentration 10 μg/ml): 23 ×100; N number of living cells after 72 h treatment (Murine tsc2ang1 cells; concentration 20 μg/ml): 23 ×100
2 | N#C/C(=C\c1ccc(O)c(O)c1)C(=O)O [AG30] |  | 250 ×100 | 270 ×100 | 
3 | COC(=O)c1ccc(NCc2cc(O)ccc2O)cc1 [AG957] | highest sensitivity |  |  | inhibition ([1]; 0.5 μg/ml, data not shown, cell line not stated in the sentence (SV7tert by context)): approximately 90%
4 | COc1cc2ncnc(Nc3cccc(Cl)c3)c2cc1OC [AG1478] |  | 251 ×100 | 210 ×100 | 
5 | Cc1ccc(NC(=O)c2ccc(CN3CCN(C)CC3)cc2)cc1Nc1nccc(-c2cccnc2)n1 [COMPOUND I, N-{5-[4-(4-methyl-piperazino-methyl)-benzoylamido]-2-methylphenyl}-4-(3-pyridyl)-2-pyrimidine-amine] | increased sensitivity to COMPOUND I compared to murine tsc2ang1 |  |  | No. of Cells after 72 hours ([1]; 2 μg/ml (control 22450)): 16500; No. of Cells after 72 hours ([1]; 5 μg/ml (control 22450)): 10000; No. of Cells after 72 hours ([1]; 10 μg/ml (control 22450)): 6500; Akt phosphorylation (in words) [2]: downregulation of Akt phosphorylation
6 | CCOc1cc(/C=C(\C#N)C(N)=O)cc(CSc2ccccc2)c1O [ST638] |  | 250 ×100 | 205 ×100 | 
